Measured values taken from patent US8530460B2, “Azetidine derivatives” (Boehringer Ingelheim International GmbH, priority 2011, dated 2013).

target: human ACC2 (Homo sapiens (Human), UniProt O00763); test: ACC2 assay (spectrophotometric 384 well assay, NADH-linked coupled lactate dehydrogenase/pyruvate kinase); format: biochemical; conditions: hACC2 construct lacking 128 N-terminal amino acids; 25° C., 340 nm, 15 minutes
Experimental: Spectrophotometric 384 Well Assay
Malonyl CoA formation by acetyl CoA carboxylases is stoichometrically linked to the consumption of ATP. ACC2 activity is measured in a NADH-linked kinetic method measuring ADP generated during the ACC reaction using a coupled lactate dehydrogenase/pyruvate kinase reaction.
For biological testing, a human ACC2 construct which lacks the 128 amino acids at the N-terminus for increased solubility (nt 385-6966 in Genbank entry AJ575592) is cloned. The protein is then expressed in insect cells using a baculoviral expression system. Protein purification is performed by anion exchange.
All compounds are dissolved in dimethyl sulfoxide (DMSO) to a concentration of 10 mM.
Assay reactions are then carried out in 384-well plates, with hACC2 in an appropriate dilution and at final assay concentrations (f.c.) of 100 mM Tris (pH 7.5), 10 mM trisodium citrate, 25 mM KHCO3, 10 mM MgCl2, 0.5 mg/ml BSA, 3.75 mM reduced L-glutathione, 15 U/ml lactate dehydrogenase, 0.5 mM phosphoenolpyruvate, 15 U/ml pyruvate kinase, compounds at different concentrations at final DMSO concentrations of 1%.
The enzymatic reaction is then started by addition of a mixture of NADH, acetyl Coenzyme A (both 200 μM f.c.) and ATP (500 uM f.c.). The decrease of the optical density (slope S) is then determined at 25° C. at a wavelength of 340 nm over 15 minutes in a spectrophotometric reader.
Each assay microtiter plate contains wells with vehicle instead of compound as controls for the non-inhibited enzyme (100% CTL; ‘HIGH’) and wells without acetyl-CoA as controls for non-specific NADH degradation (0% CTL; ‘LOW’).
The slope S is used for calculation of % CTL=(S(compound)−S(‘LOW’))/(S(‘HIGH’)—S(‘LOW’))*100. Compounds will give values between 100% CTL (no inhibition) and 0% CTL (complete inhibition).
For IC50 value determination, the sample slope in the presence of the test compound after subtraction of the low controls (S(compound)−S(‘LOW’)) are used.
An IC50 value is derived from the compound slopes at different dosages after subtraction of the low controls (S(compound)−S(‘LOW’)) by non-linear regression curve fitting (equation y=(A+((B−A)/(1+((C/x)^D))))).

Chain of human ACC2 (O00763 129-2458): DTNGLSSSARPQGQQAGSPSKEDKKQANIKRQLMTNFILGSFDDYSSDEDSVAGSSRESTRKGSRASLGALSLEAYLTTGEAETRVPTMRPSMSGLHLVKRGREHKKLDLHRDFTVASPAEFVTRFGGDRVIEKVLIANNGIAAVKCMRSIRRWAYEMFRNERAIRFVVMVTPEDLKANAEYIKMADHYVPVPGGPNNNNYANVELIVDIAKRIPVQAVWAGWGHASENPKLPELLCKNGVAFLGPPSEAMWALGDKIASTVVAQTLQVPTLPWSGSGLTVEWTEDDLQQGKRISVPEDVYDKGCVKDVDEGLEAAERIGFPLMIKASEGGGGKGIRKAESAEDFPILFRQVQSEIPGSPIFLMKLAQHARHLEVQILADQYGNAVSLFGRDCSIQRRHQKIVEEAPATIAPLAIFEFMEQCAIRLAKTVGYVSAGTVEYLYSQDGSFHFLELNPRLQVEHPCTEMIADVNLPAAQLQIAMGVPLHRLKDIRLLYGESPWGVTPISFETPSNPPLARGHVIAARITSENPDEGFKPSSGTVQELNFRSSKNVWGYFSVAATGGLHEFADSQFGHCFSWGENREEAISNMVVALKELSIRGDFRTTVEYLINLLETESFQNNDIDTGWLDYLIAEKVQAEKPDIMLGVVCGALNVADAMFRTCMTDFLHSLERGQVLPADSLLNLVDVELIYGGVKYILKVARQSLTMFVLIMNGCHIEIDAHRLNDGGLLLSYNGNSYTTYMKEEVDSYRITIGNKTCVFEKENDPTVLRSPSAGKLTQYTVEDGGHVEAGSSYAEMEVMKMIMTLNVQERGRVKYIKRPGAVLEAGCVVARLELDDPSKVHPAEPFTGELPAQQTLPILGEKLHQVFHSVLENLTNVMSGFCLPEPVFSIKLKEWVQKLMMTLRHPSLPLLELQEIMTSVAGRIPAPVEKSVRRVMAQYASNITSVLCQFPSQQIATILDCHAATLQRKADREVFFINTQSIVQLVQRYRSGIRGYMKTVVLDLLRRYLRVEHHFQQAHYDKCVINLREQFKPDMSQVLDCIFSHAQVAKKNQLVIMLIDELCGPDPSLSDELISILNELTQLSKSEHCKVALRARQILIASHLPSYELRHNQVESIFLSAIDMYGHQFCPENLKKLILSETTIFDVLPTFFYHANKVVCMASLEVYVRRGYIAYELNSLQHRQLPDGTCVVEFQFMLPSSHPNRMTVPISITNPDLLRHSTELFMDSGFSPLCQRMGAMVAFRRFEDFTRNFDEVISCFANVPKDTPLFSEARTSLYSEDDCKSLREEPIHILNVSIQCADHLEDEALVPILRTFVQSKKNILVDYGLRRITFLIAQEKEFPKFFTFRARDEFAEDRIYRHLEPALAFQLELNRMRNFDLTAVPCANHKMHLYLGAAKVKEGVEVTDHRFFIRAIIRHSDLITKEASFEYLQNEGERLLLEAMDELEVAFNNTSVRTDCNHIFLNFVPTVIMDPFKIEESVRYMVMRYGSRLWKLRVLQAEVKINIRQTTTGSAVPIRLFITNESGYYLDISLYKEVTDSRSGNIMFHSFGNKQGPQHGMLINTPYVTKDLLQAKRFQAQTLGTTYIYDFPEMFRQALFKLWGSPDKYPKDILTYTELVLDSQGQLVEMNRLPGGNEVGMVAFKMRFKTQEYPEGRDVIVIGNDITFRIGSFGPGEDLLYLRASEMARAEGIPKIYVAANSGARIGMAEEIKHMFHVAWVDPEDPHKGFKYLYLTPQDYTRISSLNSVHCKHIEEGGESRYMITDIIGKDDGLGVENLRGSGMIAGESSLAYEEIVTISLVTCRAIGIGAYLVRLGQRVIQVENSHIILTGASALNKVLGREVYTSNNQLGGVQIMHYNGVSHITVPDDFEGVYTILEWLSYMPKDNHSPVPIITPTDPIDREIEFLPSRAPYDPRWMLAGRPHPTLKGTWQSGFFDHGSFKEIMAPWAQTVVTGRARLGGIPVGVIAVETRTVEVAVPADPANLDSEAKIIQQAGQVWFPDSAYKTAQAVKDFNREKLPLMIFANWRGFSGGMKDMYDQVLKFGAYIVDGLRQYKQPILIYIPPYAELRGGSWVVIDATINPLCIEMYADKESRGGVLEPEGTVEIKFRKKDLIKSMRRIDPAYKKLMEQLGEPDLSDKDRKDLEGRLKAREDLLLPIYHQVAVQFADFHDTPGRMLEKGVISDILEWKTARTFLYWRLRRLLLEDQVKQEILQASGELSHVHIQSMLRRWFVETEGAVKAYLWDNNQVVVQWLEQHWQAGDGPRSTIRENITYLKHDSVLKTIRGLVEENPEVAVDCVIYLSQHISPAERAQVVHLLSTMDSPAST

For `CCCOc1ccc(N2CC(Oc3ccc([C@H](C)NC(=O)c4cncs4)cc3)C2)c(OC)c1` [Example 8.4], which IC50 is on record?
The IC50 was 430 nM.

`C[C@H](NC(=O)c1cn[nH]c1)c1ccc(OC2CN(c3ncc(C4CC4)cn3)C2)cc1` [Example 8.5] was tested. Which IC50 did it give?
Its IC50 is 160 nM.

For `C[C@H](NC(=O)CC#N)c1ccc(OC2CN(c3ncc(C4CC4)cn3)C2)cc1` [Example 8.6], which IC50 is on record?
The IC50 was 1770 nM.

How did the IC50 turn out when `CCOc1ccc(N2CC(Oc3ccc([C@H](C)NC(=O)c4cn[nH]c4)cc3)C2)cc1` [Example 8.7] was run?
The IC50 was 50 nM.

How did the IC50 turn out when `CCOc1ccc(N2CC(Oc3ccc([C@H](C)NC(=O)CC#N)cc3)C2)cc1` [Example 8.8] was run?
The IC50 was 430 nM.

Which IC50 does the source give for `CCOc1ccc(N2CC(Oc3ccc([C@H](C)NC(=O)C4(C)CC4)cc3)C2)cc1` [Example 8.9] here?
The IC50 was 1150 nM.

`CCOc1ccc(N2CC(Oc3ccc([C@H](C)NC(=O)c4cnc(NC(=O)CO)s4)cc3)C2)cc1` [Example 8.10] was tested. Which IC50 did it give?
Its IC50 is 370 nM.

`CCOc1ccc(N2CC(Oc3ccc([C@H](C)NC(=O)c4cccc(NC(C)=O)c4)cc3)C2)cc1` [Example 8.11] was tested. Which IC50 did it give?
Its IC50 is 2840 nM.

How did the IC50 turn out when `CCOc1ccc(N2CC(Oc3ccc([C@H](C)NC(=O)C4(C#N)CC4)cc3)C2)cc1` [Example 8.12] was run?
The IC50 was 1000 nM.

With `C=CCC(=O)N[C@@H](C)c1ccc(OC2CN(c3ccc(OCC)cc3)C2)cc1` [Example 8.13] as the compound, how does the IC50 read?
The IC50 was 450 nM.

For `CCOc1ccc(N2CC(Oc3ccc([C@H](C)NC(=O)c4ccnnc4)cc3)C2)cc1` [Example 8.14], which IC50 is on record?
Its IC50 is 2250 nM.

Which IC50 does the source give for `CCOc1ccc(N2CC(Oc3ccc([C@H](C)NC(=O)CC4CC4)cc3)C2)cc1` [Example 8.15] here?
Its IC50 is 1740 nM.

For `CCOc1ccc(N2CC(Oc3ccc([C@H](C)NC(=O)C(C)C)cc3)C2)cc1` [Example 8.16], which IC50 is on record?
Its IC50 is 700 nM.

How did the IC50 turn out when `CCOc1ccc(N2CC(Oc3ccc([C@H](C)NC(=O)CO)cc3)C2)cc1` [Example 8.17] was run?
Its IC50 is 2790 nM.

With `CCOc1ccc(N2CC(Oc3ccc([C@H](C)NC(=O)CC(F)(F)F)cc3)C2)cc1` [Example 8.18] as the compound, how does the IC50 read?
Its IC50 is 740 nM.

How did the IC50 turn out when `CCOc1ccc(N2CC(Oc3ccc([C@H](C)NC(=O)C4CC(F)C4)cc3)C2)cc1` (stereo partly drawn) [Example 8.19] was run?
Its IC50 is 690 nM.

`CCOc1ccc(N2CC(Oc3ccc([C@H](C)NC(=O)C4CCC4)cc3)C2)cc1` [Example 8.20] was tested. Which IC50 did it give?
Its IC50 is 480 nM.

For `CCOc1ccc(N2CC(Oc3ccc([C@H](C)NC(=O)C4(C(F)(F)F)CC4)cc3)C2)cc1` [Example 8.21], which IC50 is on record?
The IC50 was 300 nM.

How did the IC50 turn out when `CCOc1ccc(N2CC(Oc3ccc([C@H](C)NC(=O)c4nc(C)sc4C)cc3)C2)cc1` [Example 8.22] was run?
Its IC50 is 1870 nM.

For `CCOc1ccc(N2CC(Oc3ccc([C@H](C)NC(=O)CN(C)C)cc3)C2)cc1` [Example 8.23], which IC50 is on record?
The IC50 was 5790 nM.

How did the IC50 turn out when `CCOc1ccc(N2CC(Oc3ccc([C@H](C)NC(=O)Cc4cccnc4)cc3)C2)cc1` [Example 8.24] was run?
The IC50 was 3940 nM.

With `CCOc1ccc(N2CC(Oc3ccc([C@H](C)NC(=O)c4ccnc(NC(C)=O)c4)cc3)C2)cc1` [Example 8.25] as the compound, how does the IC50 read?
The IC50 was 530 nM.

How did the IC50 turn out when `CCOc1ccc(N2CC(Oc3ccc([C@H](C)NC(=O)CCOC)cc3)C2)cc1` [Example 8.26] was run?
The IC50 was 2780 nM.

Which IC50 does the source give for `CCOc1ccc(N2CC(Oc3ccc([C@H](C)NC(=O)C4CC(C)C4)cc3)C2)cc1` (stereo partly drawn) [Example 8.27] here?
Its IC50 is 760 nM.

How did the IC50 turn out when `CCOc1ccc(N2CC(Oc3ccc([C@H](C)NC(=O)c4sc(NC(C)=O)nc4C)cc3)C2)cc1` [Example 8.28] was run?
The IC50 was 170 nM.

Which IC50 does the source give for `CCOc1ccc(N2CC(Oc3ccc([C@H](C)NC(=O)CC)cc3)C2)cc1` [Example 8.29] here?
Its IC50 is 410 nM.

With `CCOc1ccc(N2CC(Oc3ccc([C@H](C)NC(=O)CF)cc3)C2)cc1` [Example 8.30] as the compound, how does the IC50 read?
The IC50 was 670 nM.

With `CCOc1ccc(N2CC(Oc3ccc([C@H](C)NC(=O)c4ccno4)cc3)C2)cc1` [Example 8.31] as the compound, how does the IC50 read?
Its IC50 is 1090 nM.

`CCOc1ccc(N2CC(Oc3ccc([C@H](C)NC(=O)c4cnc(NC(C)=O)s4)cc3)C2)cc1` [Example 8.32] was tested. Which IC50 did it give?
The IC50 was 550 nM.

Which IC50 does the source give for `CCOc1ccc(N2CC(Oc3ccc([C@H](C)NC(=O)c4cnco4)cc3)C2)cc1` [Example 8.33] here?
The IC50 was 190 nM.

For `CCOc1ccc(N2CC(Oc3ccc([C@H](C)NC(=O)c4ccns4)cc3)C2)cc1` [Example 8.34], which IC50 is on record?
Its IC50 is 810 nM.

With `CCOc1ccc(N2CC(Oc3ccc([C@H](C)NC(=O)c4csc(NC(C)=O)n4)cc3)C2)cc1` [Example 8.35] as the compound, how does the IC50 read?
Its IC50 is 3160 nM.

For `CCOc1ccc(N2CC(Oc3ccc([C@H](C)NC(=O)C(C)(C)OC)cc3)C2)cc1` [Example 8.36], which IC50 is on record?
The IC50 was 3040 nM.

For `CCOc1ccc(N2CC(Oc3ccc([C@H](C)NC(=O)c4ccc(C)o4)cc3)C2)cc1` [Example 8.37], which IC50 is on record?
Its IC50 is 2060 nM.

How did the IC50 turn out when `CCOc1ccc(N2CC(Oc3ccc([C@H](C)NC(=O)C4CNC(=O)C4)cc3)C2)cc1` (stereo partly drawn) [Example 8.39] was run?
Its IC50 is 5200 nM.

How did the IC50 turn out when `CCOc1ccc(N2CC(Oc3ccc([C@H](C)NC(=O)C4CC=CC4)cc3)C2)cc1` [Example 8.40] was run?
The IC50 was 350 nM.

For `CCOc1ccc(N2CC(Oc3ccc([C@H](C)NC(=O)c4cncs4)cc3)C2)cc1` [Example 8.41], which IC50 is on record?
Its IC50 is 510 nM.

`CCCC(=O)N[C@@H](C)c1ccc(OC2CN(c3ccc(OCC)cc3)C2)cc1` [Example 8.42] was tested. Which IC50 did it give?
The IC50 was 1690 nM.

`CCOc1ccc(N2CC(Oc3ccc([C@H](C)NC(=O)CCCNC(C)=O)cc3)C2)cc1` [Example 8.43] was tested. Which IC50 did it give?
Its IC50 is 2340 nM.

`CCOc1ccc(N2CC(Oc3ccc([C@H](C)NC(=O)C4CC(OC)C4)cc3)C2)cc1` (stereo partly drawn) [Example 8.44] was tested. Which IC50 did it give?
The IC50 was 930 nM.

`CCOc1ccc(N2CC(Oc3ccc([C@H](C)NC(=O)c4cccnc4)cc3)C2)cc1` [Example 8.45] was tested. Which IC50 did it give?
Its IC50 is 2310 nM.

`CCOc1ccc(N2CC(Oc3ccc([C@H](C)NC(=O)C4CCOC4)cc3)C2)cc1` (stereo partly drawn) [Example 8.46] was tested. Which IC50 did it give?
Its IC50 is 1190 nM.

How did the IC50 turn out when `CCOc1ccc(N2CC(Oc3ccc([C@H](C)NC(=O)COC)cc3)C2)cc1` [Example 8.47] was run?
The IC50 was 1910 nM.

`CCC(=O)N[C@@H](C)c1ccc(OC2CN(c3ncc(C4CC4)cn3)C2)cc1` [Example 9, (S)—N-(1-(4-(1-(5-Cyclopropylpyrimidin-2-yl)azetidin-3-yloxy)phenyl)ethyl)-propionamide] was tested. Which IC50 did it give?
The IC50 was 1100 nM.

With `C[C@H](NC(=O)N(C)C)c1ccc(OC2CN(c3ncc(C4CC4)cn3)C2)cc1` [Example 10.1] as the compound, how does the IC50 read?
The IC50 was 340 nM.

How did the IC50 turn out when `CCNC(=O)N[C@@H](C)c1ccc(OC2CN(c3ncc(C4CC4)cn3)C2)cc1` [Example 10.2] was run?
Its IC50 is 1170 nM.

For `CCOc1ccc(N2CC(Oc3ccc([C@H](C)NC(=O)N(C)C)cc3)C2)cc1` [Example 10.3], which IC50 is on record?
Its IC50 is 670 nM.

How did the IC50 turn out when `CCNC(=O)N[C@@H](C)c1ccc(OC2CN(c3ccc(OCC)cc3)C2)cc1` [Example 10.4] was run?
The IC50 was 440 nM.

With `CCCOc1ccc(N2CC(Oc3ccc([C@H](C)NC(=O)N(C)C)cc3)C2)c(OC)c1` [Example 10.5] as the compound, how does the IC50 read?
Its IC50 is 480 nM.

`COC(=O)N[C@@H](C)c1ccc(OC2CN(c3ncc(C4CC4)cn3)C2)cc1` [Example 10.6] was tested. Which IC50 did it give?
The IC50 was 420 nM.

How did the IC50 turn out when `CCOc1ccc(N2CC(Oc3ccc([C@H](C)NC(=O)OC)cc3)C2)cc1` [Example 10.7] was run?
Its IC50 is 230 nM.

Which IC50 does the source give for `CCCOc1cc(N2CC(Oc3ccc([C@H](C)NC(C)=O)cc3)C2)ncn1` [Example 11.1, (S)—N-(1-(4-(1-(6-Propoxypyrimidin-4-yl)azetidin-3-yloxy)phenyl)ethyl)acetamide] here?
The IC50 was 6010 nM.

Which IC50 does the source give for `CC(=O)N[C@@H](C)c1ccc(OC2CN(c3cc(OC(C)C)ncn3)C2)cc1` [Example 11.2] here?
The IC50 was 10600 nM.

For `CCOc1cc(N2CC(Oc3ccc([C@H](C)NC(C)=O)cc3)C2)ncn1` [Example 11.3], which IC50 is on record?
Its IC50 is 11800 nM.

`CC(=O)N[C@@H](C)c1ccc(OC2CN(c3cc(OCC4CC4)ncn3)C2)cc1` [Example 11.4] was tested. Which IC50 did it give?
The IC50 was 2390 nM.

How did the IC50 turn out when `CC(=O)N[C@@H](C)c1ccc(OC2CN(c3cc(OC4CCC4)ncn3)C2)cc1` [Example 11.5] was run?
Its IC50 is 3200 nM.

`CCCOc1nccc(N2CC(Oc3ccc([C@H](C)NC(C)=O)cc3)C2)n1` [Example 11.6] was tested. Which IC50 did it give?
Its IC50 is 8280 nM.

For `CC(=O)N[C@@H](C)c1ccc(OC2CN(c3cc(N(C)CC4CC4)ncn3)C2)cc1` [Example 12.1], which IC50 is on record?
Its IC50 is 4120 nM.

Which IC50 does the source give for `CC(=O)N[C@@H](C)c1ccc(OC2CN(c3ccnc(N(C)CC4CC4)n3)C2)cc1` [Example 12.2] here?
Its IC50 is 700 nM.

With `CC(=O)NC(C)c1ccc(OC2CN(c3ccc(OCC4CC4)cc3)C2)c(F)c1` (stereo not drawn) [Example 13, N-(1-(4-(1-(4-(cyclopropylmethoxy)phenyl)azetidin-3-yloxy)-3-fluorophenyl)ethyl)-acetamide] as the compound, how does the IC50 read?
The IC50 was 100 nM.
